# Source: patent publication US11026991B2, “Compositions and methods of use thereof to promote muscle growth and function” (Worlds Greatest Ingredients, LP, priority 2018, dated 2021)
# Assays:
# muscle protein synthesis = assay: Muscle protein synthesis from vastus lateralis biopsies (L-[ring-13C6]-phenylalanine incorporation); assay type: in vivo, human; details: 180 minutes post challenge, 2 g, versus subjects receiving leucine
# Experimental: Another exemplary study was done to measure muscle protein synthesis. Two subjects came to the laboratory after a seven hour, overnight fast. A baseline blood sample was taken. Then a primed (2.0 μmol·kg−1), continuous infusion (0.05 μmol·kg−1·min−1) of L-[ring-13C6]-phenylalanine and L-[15N]-phenylalanine was started in one catheter.
# Isotopes (from Cambridge Isotopes Inc., Andover, Mass.) were dissolved in 0.9% saline, filtered through a 0.2-μm filter, and infused using a calibrated syringe pump (from Harvard Apparatus, Holliston, Mass.). After obtaining steady-state enrichment, the L-[15N]-phenylalanine tracer infusion was stopped at t=0.
# Repeated muscle biopsy sampling was done throughout the infusion trial for the determination of muscle protein synthesis (based on L-[ring-13C6]-phenylalanine incorporation) before and after the ingestion of 2 g leucine or 2 g dileucine. Biopsies (˜100 mg wet weight) were obtained from the middle region of the vastus lateralis under anesthetic (Lidocaine HCl 1%) with a 5 mm Bergstrom needle custom-modified for manual suction. A schematic representation of the experimental protocol can be found in FIG. 15.
# [1] = Case study: plasma amino acids after ingestion of 2 g di-leucine (Ce) or 2 g leucine (C4); details: for increase in plasma lysine, times greater than the other condition: Ce over C4
# Experimental: The subject came into the laboratory fasted prior to the testing days. […] On Day 1, they were randomized to consume 1 of the 2 conditions. Following, consumption of the fluid mixture (8 oz. water), plasma amino acids were measured at 30, 60, 90, and 120 minutes. A 72-hour washout took place followed by the 2nd condition following the same procedures.
# The dosage used in this study was either 2 grams of di-leucine (condition Ce) or 2 grams of leucine (condition C4).
# [2] = parameters: species or system human; details: in vivo
# Experimental: Another exemplary study was done on a subject. The subject reported to the laboratory after an eight hour fast. Following and eight hour fast, the subject was given a standardized meal plan for two days prior to testing. The subject had their resting heart rate, blood pressure, body mass, height, and body measured using DEXA. Additionally, a urine sample was taken for baseline assessment of clinical safety, amino acid retention, and hydration status. A venous blood sample (10 mL) was be collected from a forearm vein prior to the subject being administrated, in a double-blind fashion a single dose of either leucine (2-gram dose), dileucine (2-gram dose) or leucine (1 grams)+dileucine (1 grams). Subsequent venous blood samples were to be collected 30, 60, 90, 120 and 240 minutes after ingestion of their assigned composition. After blood samples were taken the subject was given 250 mL of cold water to ingest. A second urine sample was taken at 240 minutes after ingestion of the composition. The methodology is shown schematically in FIG. 12.
# All blood samples were processed to allow for determination of amino acid concentrations. […]
# Plasma essential amino acids (threonine, methionine, lysine, histidine, valine, tryptophan, leucine, phenylalanine, isoleucine) were analyzed by LC/MS/MS and plasma dileucine was analyzed by GC/MS.
compound,measurement,setting,value
"CC(C)C[C@H](NC(=O)[C@@H](N)CC(C)C)C(=O)O [Ce, L-Leucyl-L-leucine]",myofibrillar FSR (muscle protein synthesis),muscle protein synthesis,significantly increased
same,increases in total EAA concentration relative to baseline (range),[1]; 30 and 60 mPost,7.2% to 26.9%
same,"increase in total EAA concentration, times greater than Condition C4",[1]; 30 mPost,4 ×
same,"increase in total plasma BCAAs, times greater than Condition C4",[1]; 30 mPost,2.9 ×
same,Plasma Isoleucine Delta Change Relative to Baseline Values,[1]; 30 mPost ingestion of 2 g,-11.31 nmol/L
same,Plasma Isoleucine Percent Change Relative to Baseline Values,[1]; 30 mPost ingestion of 2 g,−16.0%
same,Plasma Lysine Delta Change Relative to Baseline Values,[1]; 30 mPost ingestion of 2 g,39.97 nmol/L
same,Plasma Lysine Percent Change Relative to Baseline Values,[1]; 30 mPost ingestion of 2 g,29.7%
same,Plasma Methionine Delta Change Relative to Baseline Values,[1]; 30 mPost ingestion of 2 g,2.32 µM
same,Plasma Methionine Percent Change Relative to Baseline Values,[1]; 30 mPost ingestion of 2 g,10.1%
same,Plasma Phenylalanine Delta Change Relative to Baseline Values,[1]; 30 mPost ingestion of 2 g,3.55 nmol/L
same,Plasma Phenylalanine Percent Change Relative to Baseline Values,[1]; 30 mPost ingestion of 2 g,6.0%
same,Plasma Threonine Delta Change Relative to Baseline Values,[1]; 30 mPost ingestion of 2 g,7.09 µM
same,Plasma Tryptophan Delta Change Relative to Baseline Values,[1]; 30 mPost ingestion of 2 g,-0.83 nmol/L
same,Plasma Tryptophan Percent Change Relative to Baseline Values,[1]; 30 mPost ingestion of 2 g,−1.3%
same,Plasma Valine Delta Change Relative to Baseline Values,[1]; 30 mPost ingestion of 2 g,-13.31 nmol/L
same,Plasma Valine Percent Change Relative to Baseline Values,[1]; 30 mPost ingestion of 2 g,−3.6%
same,Total Plasma BCAA Delta Change Relative to Baseline Values,[1]; 30 mPost ingestion of 2 g,213 µM
same,Total Plasma BCAA Percent Change Relative to Baseline Values,[1]; 30 mPost ingestion of 2 g,35.7%
same,Total Plasma EAA Delta Change Relative to Baseline Values,[1]; 30 mPost ingestion of 2 g,265.57 nmol/L
same,Total Plasma EAA Percent Change Relative to Baseline Values,[1]; 30 mPost ingestion of 2 g,26.9%
same,"increase in plasma lysine, times greater than the other condition",[1]; 30 mPost,2.8 ×
same,Plasma Isoleucine Delta Change Relative to Baseline Values,[1]; 60 mPost ingestion of 2 g,-14.21 nmol/L
same,Plasma Isoleucine Percent Change Relative to Baseline Values,[1]; 60 mPost ingestion of 2 g,−20.1%
same,Plasma Lysine Delta Change Relative to Baseline Values,[1]; 60 mPost ingestion of 2 g,41.31 nmol/L
same,Plasma Lysine Percent Change Relative to Baseline Values,[1]; 60 mPost ingestion of 2 g,30.7%
same,Plasma Methionine Delta Change Relative to Baseline Values,[1]; 60 mPost ingestion of 2 g,1.01 µM
same,Plasma Methionine Percent Change Relative to Baseline Values,[1]; 60 mPost ingestion of 2 g,4.4%
same,Plasma Phenylalanine Delta Change Relative to Baseline Values,[1]; 60 mPost ingestion of 2 g,2.02 nmol/L
same,Plasma Phenylalanine Percent Change Relative to Baseline Values,[1]; 60 mPost ingestion of 2 g,3.4%
same,Plasma Threonine Delta Change Relative to Baseline Values,[1]; 60 mPost ingestion of 2 g,6.11 µM
same,Plasma Tryptophan Delta Change Relative to Baseline Values,[1]; 60 mPost ingestion of 2 g,-5.10 nmol/L
same,Plasma Tryptophan Percent Change Relative to Baseline Values,[1]; 60 mPost ingestion of 2 g,−7.9%
same,Plasma Valine Delta Change Relative to Baseline Values,[1]; 60 mPost ingestion of 2 g,-52.63 nmol/L
same,Plasma Valine Percent Change Relative to Baseline Values,[1]; 60 mPost ingestion of 2 g,−14.1%
same,Total Plasma BCAA Delta Change Relative to Baseline Values,[1]; 60 mPost ingestion of 2 g,26 µM
same,Total Plasma BCAA Percent Change Relative to Baseline Values,[1]; 60 mPost ingestion of 2 g,4.3%
same,Total Plasma EAA Delta Change Relative to Baseline Values,[1]; 60 mPost ingestion of 2 g,71.33 nmol/L
same,Total Plasma EAA Percent Change Relative to Baseline Values,[1]; 60 mPost ingestion of 2 g,7.2%
same,"increase in plasma lysine, times greater than the other condition",[1]; 60 mPost,5.7 ×
same,Plasma Isoleucine Delta Change Relative to Baseline Values,[1]; 90 mPost ingestion of 2 g,-26.67 nmol/L
same,Plasma Isoleucine Percent Change Relative to Baseline Values,[1]; 90 mPost ingestion of 2 g,−37.7%
same,Plasma Lysine Delta Change Relative to Baseline Values,[1]; 90 mPost ingestion of 2 g,-25.31 nmol/L
same,Plasma Lysine Percent Change Relative to Baseline Values,[1]; 90 mPost ingestion of 2 g,−18.8%
same,Plasma Methionine Delta Change Relative to Baseline Values,[1]; 90 mPost ingestion of 2 g,-0.00173 µM
same,Plasma Methionine Percent Change Relative to Baseline Values,[1]; 90 mPost ingestion of 2 g,−7.5%
same,Plasma Phenylalanine Delta Change Relative to Baseline Values,[1]; 90 mPost ingestion of 2 g,-5.98 nmol/L
same,Plasma Phenylalanine Percent Change Relative to Baseline Values,[1]; 90 mPost ingestion of 2 g,−10.1%
same,Plasma Threonine Delta Change Relative to Baseline Values,[1]; 90 mPost ingestion of 2 g,-0.0034 µM
same,Plasma Threonine Percent Change Relative to Baseline Values,[1]; 90 mPost ingestion of 2 g,−3.2%
same,Plasma Tryptophan Delta Change Relative to Baseline Values,[1]; 90 mPost ingestion of 2 g,-6.60 nmol/L
same,Plasma Tryptophan Percent Change Relative to Baseline Values,[1]; 90 mPost ingestion of 2 g,−10.2%
same,Plasma Valine Delta Change Relative to Baseline Values,[1]; 90 mPost ingestion of 2 g,-79.42 nmol/L
same,Plasma Valine Percent Change Relative to Baseline Values,[1]; 90 mPost ingestion of 2 g,−21.3%
same,Total Plasma BCAA Delta Change Relative to Baseline Values,[1]; 90 mPost ingestion of 2 g,-0.07162 µM
same,Total Plasma BCAA Percent Change Relative to Baseline Values,[1]; 90 mPost ingestion of 2 g,−12.0%
same,Total Plasma EAA Delta Change Relative to Baseline Values,[1]; 90 mPost ingestion of 2 g,-114.65 nmol/L
same,Total Plasma EAA Percent Change Relative to Baseline Values,[1]; 90 mPost ingestion of 2 g,−11.6%
same,Plasma Isoleucine Delta Change Relative to Baseline Values,[1]; 120 mPost ingestion of 2 g,-24.37 nmol/L
same,Plasma Isoleucine Percent Change Relative to Baseline Values,[1]; 120 mPost ingestion of 2 g,−34.4%
same,Plasma Lysine Delta Change Relative to Baseline Values,[1]; 120 mPost ingestion of 2 g,25.68 nmol/L
same,Plasma Lysine Percent Change Relative to Baseline Values,[1]; 120 mPost ingestion of 2 g,19.1%
same,Plasma Methionine Delta Change Relative to Baseline Values,[1]; 120 mPost ingestion of 2 g,-0.00168 µM
same,Plasma Methionine Percent Change Relative to Baseline Values,[1]; 120 mPost ingestion of 2 g,−7.3%
same,Plasma Phenylalanine Delta Change Relative to Baseline Values,[1]; 120 mPost ingestion of 2 g,-1.89 nmol/L
same,Plasma Phenylalanine Percent Change Relative to Baseline Values,[1]; 120 mPost ingestion of 2 g,−3.2%
same,Plasma Threonine Delta Change Relative to Baseline Values,[1]; 120 mPost ingestion of 2 g,-0.00207 µM
same,Plasma Threonine Percent Change Relative to Baseline Values,[1]; 120 mPost ingestion of 2 g,−1.9%
same,Plasma Tryptophan Delta Change Relative to Baseline Values,[1]; 120 mPost ingestion of 2 g,-13.23 nmol/L
same,Plasma Tryptophan Percent Change Relative to Baseline Values,[1]; 120 mPost ingestion of 2 g,−20.5%
same,Plasma Valine Delta Change Relative to Baseline Values,[1]; 120 mPost ingestion of 2 g,-85.53 nmol/L
same,Plasma Valine Percent Change Relative to Baseline Values,[1]; 120 mPost ingestion of 2 g,−22.9%
same,Total Plasma BCAA Delta Change Relative to Baseline Values,[1]; 120 mPost ingestion of 2 g,-0.06614 µM
same,Total Plasma BCAA Percent Change Relative to Baseline Values,[1]; 120 mPost ingestion of 2 g,−11.1%
same,Total Plasma EAA Delta Change Relative to Baseline Values,[1]; 120 mPost ingestion of 2 g,-59.34 nmol/L
same,Total Plasma EAA Percent Change Relative to Baseline Values,[1]; 120 mPost ingestion of 2 g,−6.0%
same,plasma dileucine levels,[2],measurable increases
